Source: patent publication US11623919B2, “Heterocyclic P2X7 antagonists” (AXXAM S.P.A., priority 2017, dated 2023)

What was measured:
Assay type in all cases: cell-based
P2X7 receptor [1] = molecular target: T1, P2X7 receptor (Homo sapiens, UniProt Q99572); test: Screen Quest Fluo-8 No Wash Calcium Assay (Bz-ATP evoked Ca2+ influx, FLIPR); set-up: hP2X7 (IC50; nM); other: hP2X7; HEK-293 cells stably transfected with P2X7 receptor, Bz-ATP at EC80, Fluo-8 NW; potency; details: hP2X7; HEK-293 cells stably transfected with P2X7 receptor, Bz-ATP at EC80, Fluo-8 NW; potency ranges A-D
T1 sequence (Q99572 1-595): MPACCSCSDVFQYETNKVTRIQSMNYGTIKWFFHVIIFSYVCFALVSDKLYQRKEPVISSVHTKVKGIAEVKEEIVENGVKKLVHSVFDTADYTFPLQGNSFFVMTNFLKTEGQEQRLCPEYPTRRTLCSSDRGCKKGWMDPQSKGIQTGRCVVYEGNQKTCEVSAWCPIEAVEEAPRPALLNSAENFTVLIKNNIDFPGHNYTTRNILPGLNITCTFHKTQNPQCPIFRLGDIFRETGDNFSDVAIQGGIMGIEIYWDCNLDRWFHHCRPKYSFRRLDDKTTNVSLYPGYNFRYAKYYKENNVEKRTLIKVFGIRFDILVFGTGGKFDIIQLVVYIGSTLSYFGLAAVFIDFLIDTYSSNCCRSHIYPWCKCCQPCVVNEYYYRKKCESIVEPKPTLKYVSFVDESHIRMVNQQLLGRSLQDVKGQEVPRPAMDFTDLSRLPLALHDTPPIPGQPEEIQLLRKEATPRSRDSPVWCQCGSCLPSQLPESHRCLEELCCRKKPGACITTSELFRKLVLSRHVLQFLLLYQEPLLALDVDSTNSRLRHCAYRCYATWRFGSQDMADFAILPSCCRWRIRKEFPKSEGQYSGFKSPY
Method in brief: (§1)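 Compounds were added to Fluo-8-loaded P2X7-transfected HEK-293 cells 5 min before an EC80 Bz-ATP challenge, and Ca2+ influx was then recorded for 3 min. Buffer held 0.3 mM Ca2+ and no Mg2+. Inhibition was normalised to A438079, giving IC50 values.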

P2X7 receptor [2] = molecular target: T2, P2X7 receptor (Mus musculus, UniProt Q9Z1M0); test: as above; details: mP2X7; HEK-293 cells stably transfected with P2X7 receptor, Bz-ATP at EC80, Fluo-8 NW; potency ranges A-D
T2 construct: mP2X7 (IC50; nM); other: mP2X7; HEK-293 cells stably transfected with P2X7 receptor, Bz-ATP at EC80, Fluo-8 NW; potency
T2 sequence (Q9Z1M0 1-595): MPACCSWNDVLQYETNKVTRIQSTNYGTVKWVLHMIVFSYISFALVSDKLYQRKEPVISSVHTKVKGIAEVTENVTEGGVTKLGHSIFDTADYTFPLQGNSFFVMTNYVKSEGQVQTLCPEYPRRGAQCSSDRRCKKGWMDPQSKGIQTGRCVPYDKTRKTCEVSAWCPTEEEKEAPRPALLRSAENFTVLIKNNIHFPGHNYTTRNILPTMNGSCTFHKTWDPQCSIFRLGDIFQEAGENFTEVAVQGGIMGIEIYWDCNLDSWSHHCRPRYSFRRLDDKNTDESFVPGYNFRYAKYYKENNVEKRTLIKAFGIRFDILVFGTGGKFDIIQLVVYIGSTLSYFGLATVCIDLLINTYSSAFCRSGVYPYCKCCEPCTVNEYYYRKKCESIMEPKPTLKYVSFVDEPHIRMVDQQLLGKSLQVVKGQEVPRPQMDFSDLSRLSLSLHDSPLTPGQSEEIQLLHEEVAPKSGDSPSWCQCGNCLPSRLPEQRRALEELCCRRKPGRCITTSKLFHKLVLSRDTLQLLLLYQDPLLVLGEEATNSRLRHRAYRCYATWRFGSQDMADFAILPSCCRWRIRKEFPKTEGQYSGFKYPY
Method in brief: as §1

P2X7 receptor [3] = molecular target: T3, P2X7 receptor (Rattus norvegicus, UniProt Q64663); test: as above; details: rP2X7; HEK-293 cells stably transfected with P2X7 receptor, Bz-ATP at EC80, Fluo-8 NW; potency ranges A-D
T3 construct: rP2X7 (IC50; nM); other: rP2X7; HEK-293 cells stably transfected with P2X7 receptor, Bz-ATP at EC80, Fluo-8 NW; potency
T3 sequence (Q64663 1-595): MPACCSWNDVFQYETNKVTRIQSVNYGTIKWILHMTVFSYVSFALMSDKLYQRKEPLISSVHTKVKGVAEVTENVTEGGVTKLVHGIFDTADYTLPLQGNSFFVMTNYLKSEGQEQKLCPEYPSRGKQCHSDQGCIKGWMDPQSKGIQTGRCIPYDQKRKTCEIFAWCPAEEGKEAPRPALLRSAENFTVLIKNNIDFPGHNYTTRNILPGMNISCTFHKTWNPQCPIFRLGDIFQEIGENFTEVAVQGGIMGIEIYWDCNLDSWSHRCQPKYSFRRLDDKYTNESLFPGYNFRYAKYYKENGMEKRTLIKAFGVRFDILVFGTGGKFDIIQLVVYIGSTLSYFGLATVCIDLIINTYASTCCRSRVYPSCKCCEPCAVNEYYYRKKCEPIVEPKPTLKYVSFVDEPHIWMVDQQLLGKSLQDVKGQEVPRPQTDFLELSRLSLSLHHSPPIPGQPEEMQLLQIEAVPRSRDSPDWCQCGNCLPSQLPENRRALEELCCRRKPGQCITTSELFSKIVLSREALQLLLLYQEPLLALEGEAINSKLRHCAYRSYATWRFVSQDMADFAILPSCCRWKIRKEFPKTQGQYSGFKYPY
Method in brief: as §1

P2X7 receptor [4] = molecular target: T1, P2X7 receptor; test: Automated patch-clamp (QPatch16X) P2X7 channel assay; set-up: expressed in transfected cells; host or cells: HEK-293; details: HEK-293 cells expressing P2X7 channels; whole-cell, held at -80 mV; 100 microM BzATP; compound 1, 10, 100 and 1000 nM; read-out: Q-Patch (IC50)
Description: In order to directly monitor the block of P2X7 channel, an electrophysiological assay was developed and implemented on the QPatch16X automated electrophysiology instrument.
HEK-293 cells expressing the P2X7 channels were cultured in modified EMEM.
72 hours before experiment, 5 million cells were seeded onto T225 flasks. Just before the experiment cells were washed twice, detached from the flask with trypsin-EDTA, re-suspended in the suspension solution and placed on the QPatch 16x.
The compounds (20 mM in a 100% DMSO) stored at −20° C. were prepared the day of the experiment (a first dilution 1:20 in 100% DMSO to prepare a 1 mM stock solution, then a 1 microM solution in external solution+a serial dilution 1:10).
The standard whole-cell voltage clamp experiments were performed at room temperature. From these experiments the multihole technology was used and the data were sampled at 2 KHz.
The intracellular solution contained (mM) 135 CsF, 10 NaCl, 1 EGTA, 10 HEPES, (pH 7.2 with CsOH) whereas the extracellular contained (mM) 145 NaCl, 4 KCl, 0.5 MgCl2, 1 CaCl2, 10 HEPES, 10 Glc (pH 7.4 with NaOH).
After establishment of the seal and the passage in the whole cell configuration, the cells were held at −80 mV. The P2XR7 current was evoked by applying 100 microM of BzATP alone (4 times) and then in the presence increasing concentrations of the compound under investigation (1, 10, 100 and 1000 nM).
The pre-incubation periods 5 to 8 contain increasing concentrations of the compound of interest (1, 10, 100 and 1000 nM), as illustrated in FIGURE (application protocol).
The maximal inward current evoked by BzATP in absence or presence of increasing concentrations of the compounds under investigation was measured and normalized. The potential […] effect was measured as % of control and as IC50 determined fitting the dose-response curves data with the following equation: Y=100/(1+10^((Log IC50−X)*HillSlope))

SMILES | IC50 (P2X7 receptor [1]) | IC50 (P2X7 receptor [2]) | IC50 (P2X7 receptor [3]) | IC50 (P2X7 receptor [4])
CC(c1ccccc1)n1c(Cc2c(F)cccc2Cl)noc1=O (centres unmarked) [Example 49, 3-[(2-chloro-6-fluorophenyl)methyl]-4-(1-phenylethyl)-4,5-dihydro-1,2,4-oxadiazol-5-one] | 1000 to 10000 nM | 1000 to 10000 nM | 200 to 1000 nM | 0.391 µM
O=c1onc(Cc2c(F)cccc2Cl)n1Cc1cccc(Cl)c1Cl [Example 59, 3-[(2-chloro-6-fluorophenyl)methyl]-4-[(2,3-dichlorophenyl)methyl]-4,5-dihydro-1,2,4-oxadiazol-5-one] | 200 to 1000 nM | 200 to 1000 nM | 200 to 1000 nM | 0.355 µM
O=c1onc(CN2CCCCC2)n1Cc1ccc(F)cc1 [Example 240, 4-[(4-fluorophenyl)methyl]-3-(piperidin-1-ylmethyl)-4,5-dihydro-1,2,4-oxadiazol-5-one] | > 10000 nM | > 10000 nM | 1000 to 10000 nM | 
O=c1onc(CN2CCCCC2)n1Cc1c(F)cccc1Cl [Example 241, 4-[(2-chloro-6-fluorophenyl)methyl]-3-[(piperidin-1-yl)methyl]-1,2,4-oxadiazol-5(4H)-one] | 200 to 1000 nM | 200 to 1000 nM | < 200 nM | 
O=c1onc(CN2CCc3ccccc3C2)n1Cc1c(F)cccc1Cl [Example 244, 4-[(2-chloro-6-fluorophenyl)methyl]-3-(1,2,3,4-tetrahydroisoquinolin-2-ylmethyl)-4,5-dihydro-1,2,4-oxadiazol-5-one] | 1000 to 10000 nM | 200 to 1000 nM | 200 to 1000 nM | 

Results, then the molecule that gave them:

IC50 (P2X7 receptor [1]) | IC50 (P2X7 receptor [2]) | IC50 (P2X7 receptor [3]) | IC50 (P2X7 receptor [4]) | SMILES
200 to 1000 nM | 200 to 1000 nM | 200 to 1000 nM |  | O=c1onc(CN2CCCC(F)(F)C2)n1Cc1c(F)cccc1Cl [Example 224, 4-[(2-chloro-6-fluorophenyl)methyl]-3-[(3,3-difluoropiperidin-1-yl)methyl]-4,5-dihydro-1,2,4-oxadiazol-5-one]
> 10000 nM | > 10000 nM | 1000 to 10000 nM |  | O=c1onc(CN2CCCC(F)(F)C2)n1Cc1ccc(F)cc1 [Example 225, 3-[(3,3-difluoropiperidin-1-yl)methyl]-4-[(4-fluorophenyl)methyl]-4,5-dihydro-1,2,4-oxadiazol-5-one]
< 200 nM | < 200 nM | < 200 nM |  | CC1CC(F)(F)CCN1Cc1noc(=O)n1Cc1c(F)cccc1Cl (centres unmarked) [Example 226, 4-[(2-chloro-6-fluorophenyl)methyl]-3-[(4,4-difluoro-2-methylpiperidin-1-yl)methyl]-4,5-dihydro-1,2,4-oxadiazol-5-one]
1000 to 10000 nM | 1000 to 10000 nM | 200 to 1000 nM |  | CC1CC(F)(F)CCN1Cc1noc(=O)n1Cc1ccc(F)cc1 (centres unmarked) [Example 227, 3-[(4,4-difluoro-2-methylpiperidin-1-yl)methyl]-4-[(4-fluorophenyl)methyl]-4,5-dihydro-1,2,4-oxadiazol-5-one]
< 200 nM | 200 to 1000 nM | 200 to 1000 nM |  | O=c1onc(CN2CCOc3ccccc32)n1Cc1ccc(F)cc1 [Example 228, 3-(3,4-dihydro-2H-1,4-benzoxazin-4-ylmethyl)-4-[(4-fluorophenyl)methyl]-4,5-dihydro-1,2,4-oxadiazol-5-one]
1000 to 10000 nM | 1000 to 10000 nM | 1000 to 10000 nM |  | O=c1onc(CN2CCOc3ccccc32)n1Cc1c(F)cccc1Cl [Example 229, 4-[(2-chloro-6-fluorophenyl)methyl]-3-(3,4-dihydro-2H-1,4-benzoxazin-4-ylmethyl)-4,5-dihydro-1,2,4-oxadiazol-5-one]
< 200 nM | < 200 nM | < 200 nM |  | O=c1onc(CN2CCOc3ccccc32)n1CC1CCCCC1 [Example 230, 4-(cyclohexylmethyl)-3-(3,4-dihydro-2H-1,4-benzoxazin-4-ylmethyl)-4,5-dihydro-1,2,4-oxadiazol-5-one]
< 200 nM | < 200 nM | < 200 nM |  | O=c1onc(CN2CCOc3ccccc32)n1CC1CCC(F)(F)CC1 [Example 231, 4-[(4,4-difluorocyclohexyl)methyl]-3-(3,4-dihydro-2H-1,4-benzoxazin-4-ylmethyl)-4,5-dihydro-1,2,4-oxadiazol-5-one]
